This series is described as follows: dissolution of ondansetron in hydroalcoholic solution. To be noted: approximately 50° ethanol. It is filed as physicochemical. The method, then: By way of example, the coefficient of dissolution of ondansetron in ethanol allows complete dissolution of said active ingredient at the rate of 2 milligrams (mg) of ondansetron per 0.75 milliliters (mL) of approximately 50° ethanol. This coefficient may be modulated as a function of the degree of alcohol and the water/ethanol ratio used.

The text below walks through data of patent US20110251233A1, “FORMULATION FOR THE BUCCAL TRANSMUCOSAL ADMINISTRATION OF SETRONS” (priority 2008, published 2011).

In the case of `Cc1nccn1CC1CCc2c(c3ccccc3n2C)C1=O` (stereo not shown) [ondansetron], the “coefficient of dissolution (complete dissolution)” value was 2 mg per 0.75 mL.
